US11980607B2, “Methods of treating malignant lymphoproliferative disorders” (Actuate Therapeutics Inc., priority 2018, dated 2024)

Legend:
TCL and MCL lines = test: Apoptosis assay in TCL and MCL lines; type: cell-based, human; conditions: low doses, 48 hours
Procedure: Unstimulated peripheral blood B- and T-lymphocytes isolated from a healthy donor were used as normal control. Pro-apoptotic effect of the GSK3 inhibitor 9-ING-41 in various MCL and TCL lines (A) and DLBCL lines (B). (C) Cell proliferation profile of various lymphoma cell lines upon treatment with 9-ING-41. Results (A-C) are from 3 independent experiments.
Cells were seeded at 5×10^5 cells/well in 24 well plates, and incubated with 9-ING-41 at indicated concentrations for 48 hours. The cells were then stained with FITC conjugated Annexin V (Life Technologies) and Propidium Iodide followed by analysis on a BD FACS Calibur flow cytometer.
Given that both GSK3α and GSK3β are overexpressed in lymphoma cells, and that both enzymes are implicated in multiple signaling pathways critical for cell functions, whether GSK3α and GSK3β are functionally supporting the survival and proliferation of lymphoma cells was examined. […] The inhibitory concentrations of 9-ING-41 at half of the maximal effect (IC50) on cell survival of various lymphoma cell lines was calculated (Table 1).

[1] = Xenograft mice, 20 mg/kg intravenous, within 30 minutes; cited from earlier work
[2] = system: phospho-c-MYC in KPUM-UH1 cells; test: Western blot analysis of c-MYC; type: cell-based; conditions: KPUM-UH1 double-hit lymphoma cell line
Procedure: c-MYC levels were analyzed in KPUM-UH1 cells via western blot for 9-ING-41 alone and the combination of 9ING-41 with either Venetoclax or BAY-1143572. Around 10 million cells were spun down at 200 rcf for 5 minutes and rinsed once with PBS before lysing in 50 μl of Millipore Milliplex MAP lysis buffer supplemented with protease and phosphatase inhibitors (Roche). Protein denatured in 4× sample buffer supplemented with β-mercaptoethanol (Bio-Rad) was loaded per well. Bio-Rad stain-free Criterion 4-20% precast gels were used. After running the gel at 140 volts for 90 minutes, Bio-Rad gel imager was used to activate the stain-free technology to visualize the total protein levels loaded in the gel. A nitrocellulose turbo-transfer pack and system (Bio-Rad) was then used to transfer the proteins to the membrane, and 5% w/v dry milk in Tris-buffered saline-0.1% Tween 20 (TBS-T) was used to block the membranes for 1 hour. Membranes were then incubated with the primary antibody diluted in 5% BSA in TBS-T overnight. Membranes were then rinsed in TBS-T 3 times (one 15 minute wash and two 5 minutes washes) and then incubated with the corresponding secondary antibody-conjugated with HRP for 1 hour and rinsed with TBS-T as before. […] Quantification of the band intensities were performed using Image J software (NIH).

MyLa = test: Proliferation assay (thymidine uptake); type: cell-based; conditions: Homo sapiens; MyLa (TCL), 48 hours then thymidine pulse; read-out: IC50 (μM) on Cell proliferation
Procedure: (§1) Cells were seeded at 1×10^4 cells/well in 96 well plates, and incubated with 9-ING-41 at indicated concentrations for 48 hours followed by pulsing with tritium labeled thymidine for overnight before being analyzed for thymidine uptake.
(§2) The IC50S of 9-ING-41 on cell survival and proliferation was calculated using an on-line IC50 calculation tool (https://www.aatbio.com/tools/ic50-calculator/).
(§3) 9-ING-41 can specifically induce lymphoma cell apoptosis without affecting normal lymphocytes. The thymidine incorporation assay in the presence or absence of 9-ING-41 was performed to test the role of GSK3 in lymphoma cell proliferation. […] The DLBCL lines required slightly higher concentrations. The IC50 of 9-ING-41 on cell proliferation for various lymphoma cell lines was calculated (Table 1).

OCI-LY1 = test: Proliferation assay (thymidine uptake); type: cell-based; conditions: Homo sapiens; OCI-LY1 (DLBCL), 48 hours then thymidine pulse; read-out: IC50 (μM) on Cell proliferation
Procedure: as §1, §2, §3

SU-DHL6 = test: Proliferation assay (thymidine uptake); type: cell-based; conditions: Homo sapiens, SU-DHL-6; SU-DHL6 (DLBCL), 48 hours then thymidine pulse; read-out: IC50 (μM) on Cell proliferation
Procedure: as §1, §2, §3

Karpas-299 = test: Proliferation assay (thymidine uptake); type: cell-based; conditions: Homo sapiens; Karpas-299 (TCL), 48 hours then thymidine pulse; read-out: IC50 (μM) on Cell proliferation
Procedure: as §1, §2, §3

SeAx = test: Proliferation assay (thymidine uptake); type: cell-based; conditions: Homo sapiens; SeAx (TCL), 48 hours then thymidine pulse; read-out: IC50 (μM) on Cell proliferation
Procedure: as §1, §2, §3

OCI-Ly3 = test: Proliferation assay (thymidine uptake); type: cell-based; conditions: Homo sapiens; OCI-Ly3 (DLBCL), 48 hours then thymidine pulse; read-out: IC50 (μM) on Cell proliferation
Procedure: as §1, §2, §3

Mino = test: Proliferation assay (thymidine uptake); type: cell-based; conditions: Homo sapiens; Mino (MCL), 48 hours then thymidine pulse; read-out: IC50 (μM) on Cell proliferation
Procedure: as §1, §2, §3

Granta-519 = test: Proliferation assay (thymidine uptake); type: cell-based; conditions: Homo sapiens; Granta-519 (MCL), 48 hours then thymidine pulse; read-out: IC50 (μM) on Cell proliferation
Procedure: as §1, §2, §3

OCI-LY19 = test: Proliferation assay (thymidine uptake); type: cell-based; conditions: Homo sapiens; OCI-LY19 (DLBCL), 48 hours then thymidine pulse; read-out: IC50 (μM) on Cell proliferation
Procedure: as §1, §2, §3

Jeko = test: Proliferation assay (thymidine uptake); type: cell-based; conditions: Homo sapiens; Jeko (MCL), 48 hours then thymidine pulse; read-out: IC50 (μM) on Cell proliferation
Procedure: as §1, §2, §3

Jeko derived xenograft = test: Jeko derived MCL xenograft mouse model; type: in vivo; conditions: NSG mice, 40 mg/kg every other day IP, day 17
Description: The images shown were collected at the end of the experiment (day 17). […] An MCL xenograft mouse model was established by subcutaneously injecting NGS mice with Jeko cells expressing the firefly luciferase reporter gene Fluc. NSG (NOD.Cg-PrkdcscidIl2rgtm1Wjl/SzJ) mice used in these experiments were purchased from the Jackson Laboratory (Bar Harbor, Maine). Eight to ten mice of same sex at 8 weeks of age were subcutaneously injected with 5×10^6 Fluc expressing Jeko cells in the right flanks. Tumor engraftment was verified by imaging 4 days after Jeko cell inoculation. […] Tumor volumes were measured by an IVIS Imager (Xenogen, Alameda, CA) 20 minutes after IP injection of 200 ul of 15 mg/ml D-leuciferin (GoldBio, St. Louis, MO) and anesthetized with 2.5% isoflurane. All imaging variables were kept consistent for comparativeness. The experiment terminated when the largest tumor met the size limit of the IACUC protocol.

IC50 (OCI-LY1): 0.69 µM
IC50 (SU-DHL6): 0.84 µM
IC50 (Karpas-299): 0.26 µM
IC50 (OCI-Ly3): 1.03 µM
IC50 (OCI-LY19): 1.96 µM
Structure (SMILES): Cn1cc(C2=C(c3coc4ccc(F)cc34)C(=O)NC2=O)c2cc3c(cc21)OCO3 [9-ING-41, 3-(5-Fluorobenzofuran-3-yl)-4-(5-methyl-5H-[1,3]dioxolo[4,5-f]indol-7-yl)pyrrole-2,5-dione]
Apoptosis in TCL and MCL lines (TCL and MCL lines): induced apoptosis
9-ING-41 concentration in plasma [1]: around 8 μM
9-ING-41 concentration in the brain [1]: around 40 μM
Effect on phospho-c-MYC [2]: phospho-c-MYC is modified
IC50 (MyLa): 0.19 µM
IC50 (SeAx): 0.38 µM
IC50 (Mino): 0.72 µM
IC50 (Granta-519): 0.38 µM
IC50 (Jeko): 0.94 µM
Tumor size and luciferase activity versus control (Jeko derived xenograft): smaller tumors with much lower luciferase activity
